Measurements as given in the NIST ThermoML archive (doi:10.1016/j.fluid.2018.05.005).
± gives the expanded uncertainty stated by the source.

How the values were obtained:
[1] = Crystal; DSC
[2] = Molar enthalpy of transition or fusion; conditions: Crystal; DSC

Triple point temperature [1]: 428.99 ± 1.9 K
Molar enthalpy of transition or fusion [2]: 5.86 ± 0.263 kcal/mol
Compound: CC1(C)CCC2=C(O1)c1ccccc1C(=O)C2=O [3,4-dihydro-2,2-dimethyl-2H-naphtho[1,2-b]pyran-5,6-dione]
